Experimental data reported in article PMC11123929, “A Comparative Study and Prediction of the Ex Vivo Permeation of Six Vaginally Administered Drugs across Five Artificial Membranes and Vaginal Tissue” (Molecules, 2024).

Tests used:
[1] = Franz diffusion cell in vitro permeability, cellulose membrane; details: for Cumulative Amount Permeated, Cellulose (Hydrophilic): after 8 h, mean ± SD (n = 3); for Papp (experimental, in vitro): cellulose membrane, Table 6, compared with PLS prediction; for Papp at 8 h: pH 7.4; for permeation order of the substance, Cellulose (Hydrophilic): rank among the six drugs by cumulative amount after 8 h
Source text: (§1) There are many membranes available on the market that are grouped as cellulosic and polymeric. Taking into account those that are more convenient and economical, two synthetic membranes and their combinations were used. Synthetic PVDF (polyvinylidene difluoride) and cellulose acetate (Table S2) membranes were pre-treated according to the supplier’s instructions. Cellulose membranes were further treated to acquire their lipophilic properties. Thus, they were placed on a flat glass surface and completely coated with IPM (isopropyl myristate) solution. The cellulose membrane was allowed to incubate in the IPM solution for 30 min. After impregnation, the excess IPM solution was drained off, and the membrane was used for the in vitro experiments. To ensure that the procedure was carried out successfully, the cellulose membrane was weighed before and after pretreatment.
(§2) The in vitro permeability profile of each compound was evaluated using the Franz diffusion cell setup (PermeGear, Hellertown, PA, USA). Five distinct artificial membranes were placed between the donor (upper) and receiver (lower) chambers of cells, with an effective diffusion area of 4.9 cm^2 and a receptor volume of 20 mL; 1 mL of APIs solutions were placed in the donor compartment, which was sealed with Parafilm® to prevent any loss of moisture. The acceptor contained degassed PBS at pH 7.4. The procedure was performed under agitation at 90 rpm and at a temperature of 37 °C ± 0.2 °C.
(§3) At specified intervals (t = 2, 3, 4, 6, and 8 h), 0.5 mL of the samples was taken from the receptor compartment and replaced with an equal volume of freshly prewarmed receptor medium. The concentration of each API was quantified using the appropriate HPLC method (Section 4.1) without sample pretreatment. Blanks containing PBS were pretreated with the same procedure. Each sample was analyzed in triplicate, and its cumulative release over time was plotted (Figure 2). The steady-state flux (Jss) was determined by plotting the permeation of the API per unit area (μg/cm^2) against time (h) and calculating the slope of the linear portion of the resulting line. Equation (1) was applied to calculate the apparent permeability coefficient (cm/h) (Paap).

[2] = Franz diffusion cell in vitro permeability, PVDF membrane; details: for Cumulative Amount Permeated, PVDF (Hydrophobic): after 8 h, mean ± SD (n = 3); for Papp at 8 h: pH 7.4; for permeation order of the substance, PVDF (Hydrophobic): rank among the six drugs by cumulative amount after 8 h
Source text: as §1, §2, §3

[3] = Franz diffusion cell in vitro permeability, IPM-impregnated cellulose membrane; details: for Cumulative Amount Permeated, Impregnated IPM: after 8 h, mean ± SD (n = 3); for Papp at 8 h: pH 7.4; for permeation order of the substance, Impregnated IPM: rank among the six drugs by cumulative amount after 8 h
Source text: as §1, §2, §3

[4] = Retention on reversed-phase C4 HPLC column as indication of tissue penetration; type: physicochemical; details: ACE C4 150 × 4.6 mm, MeOH-H2O 10:90, 0.5 mL/min, 40 °C
Protocol: Under the given conditions, it was assumed that the stationary phase simulates the tissue while the aqueous mobile phase represents the surrounding space. […] The analysis was carried out under isocratic conditions with a flow rate of 0.5 mL/min and a mobile phase consisting of MeOH-H2O at 10:90 (v/v).

[5] = Franz diffusion cell in vitro permeability, hybrid IPM-cellulose membrane
Source text: as §1, §2, §3

[6] = Ex vivo permeability in Franz diffusion cell, cow vaginal tissue
Protocol: Ex vivo experiments were conducted on cow vaginal mucosa sourced from a local slaughterhouse. Tissues with an exposure area of 0.19 cm^2 were placed in a Franz diffusion cell with the epithelial mucosa side facing the donor compartment. In the donor compartment, 200 μL of API’s solution in VFS (pH 4.5) was added (37 °C ± 0.2 °C), while the acceptor was filled with 5 mL of PBS at pH 7.4 (constant stirring at 100 rpm).
Samples were centrifuged at 2000× g for 10 min, and supernatants were analyzed using HPLC as described in Section 4.1.
The procedure for extracting the drug from the tissue was as follows: after the experiment was completed, each tissue was carefully removed from the Franz cell and immersed in 5 mL of methanol. It was then sonicated for 30 min, followed by 10 min of vertexing, another 30 min in the sonicator, and 10 min of vertexing. Finally, the samples were centrifuged for 20 min at 5000× g, and the supernatant was collected for analysis.

[7] = cited from earlier work; for PSA: ref Pubchem [1]
[8] = Franz diffusion cell in vitro permeability, hybrid PVDF-cellulose membrane
Source text: as §1, §2
as §3, with “Blanks containing PBS were pretreated with the same procedure.” left out, “Equation (1) was applied to calculate the apparent permeability coefficient (cm/h) (Paap).” left out

[9] = cited from earlier work
[10] = rank among the six drugs by cumulative amount after 8 h

Row | Structure (SMILES) | Papp value / permeability / diffusion profile in cellulose membrane [1] | Cumulative Amount Permeated, Cellulose (Hydrophilic) [1] [μg/cm^2] | Papp (experimental, in vitro) [1] [×10⁻⁶ cm/s] | Papp at 8 h [1] [×10⁻⁶ cm/s] | permeation order of the substance, Cellulose (Hydrophilic) [1] | Cumulative Amount Permeated, PVDF (Hydrophobic) [2] [μg/cm^2] | Papp at 8 h [2] [×10⁻⁶ cm/s] | permeation order of the substance, PVDF (Hydrophobic) [2] | Cumulative Amount Permeated, Impregnated IPM [3] [μg/cm^2] | Papp at 8 h [3] [×10⁻⁶ cm/s] | permeation order of the substance, Impregnated IPM [3] | Retention time (tr) in column C4 [4] [min] | diffusion profile in cellulose-IPM membrane [5] | tissue permeability / diffusion profile in vaginal tissue, ex vivo [6] | Acceptor's Mass ([6]; cow, 8 h) | Final Mass Donor ([6]; cow, 8 h) | Tissue Extraction ([6]; cow, 8 h) | Tangible aqueous solubility (descriptive term) ([7]; ref European Pharmacopeia) | PSA [7] [Å2] | other results
1 | Clc1ccc(COC(Cn2ccnc2)c2ccc(Cl)cc2Cl)cc1 (stereo not shown) [ECO, econazole] | negligible | 1.7 | 0.239 | 0.239 | 5th | 15.3 | 0.0417 | 6th | 0.92 | 0.0389 | 4th | 9.94 | zero | zero | 0 mg | 0.2 (±0.01) mg | 0.01 (±0.001) mg | very slightly soluble | 27 | –
2 | CCN(CC)CC(=O)Nc1c(C)cccc1C [LIDO, lidocaine] | – | – | – | – | – | – | – | – | – | – | – | – | – | – | 0.53 (±0.09) mg | 0.9 (±0.1) mg | 0.5 (±0.09) mg | – | – | –
3 | Cc1ncc([N+](=O)[O-])n1CCO [METRO, metronidazole] | – | 3976.4 | 6.39 | 6.39 | 1st | 2008.4 | 2.5 | 1st | 2373.1 | 3.89 | 1st | 3.93 | – | – | 0.65 (±0.08) mg | 0.01 (±0.001) mg | 1.4 (±0.2) mg | very soluble | 83.87 | Cumulative Amount Permeated, IPM-Cellulose ([5]; after 8 h, mean ± SD (n = 3)): 307.3 μg/cm^2; Papp at 8 h ([5]; pH 7.4): 0.556 ×10⁻⁶ cm/s; permeation order of the substance, IPM-Cellulose [5, 10]: 3rd; Papp at 8 h, 10 mg/mL ([6]; cow): 12.8 ×10⁻⁶ cm/s; Cumulative Amount Permeated, Tissue ([6]; cow, 8 h, 10 mg/mL): 3419.5 μg/cm^2; permeation order of the substance, Tissue ([6]; cow, 8 h, 10 mg/mL): 1st; Tangible aqueous solubility (value in brackets) ([7]; ref European Pharmacopeia): 5920 µg/mL; Cumulative Amount Permeated, PVDF-Cellulose ([8]; after 8 h, mean ± SD (n = 3)): 370.2 μg/cm^2; Papp at 8 h ([8]; pH 7.4): 1.11 ×10⁻⁶ cm/s; permeation order of the substance, PVDF-Cellulose [8, 10]: 3rd
4 | Clc1ccc(COC(Cn2ccnc2)c2ccc(Cl)cc2Cl)c(Cl)c1 (stereo not shown) [MICO, miconazole] | negligible and zero | – | 0 | – | – | 33.4 | 0.806 | 5th | – | – | – | 10.2 | zero | zero | 0 mg | 0.26 (±0.02) mg | 0 mg | very slightly soluble | 27 | –
5 | CCCCCCCCCc1ccc(OCCOCCOCCOCCOCCOCCOCCOCCOCCO)cc1 [NONO, nonoxynol-9] | negligible | 20.1 | 0.0556 | – | 4th | 1752.2 | – | 2nd | – | – | – | 39.48 | zero | does not penetrate the vaginal tissue at all and zero | – | – | – | miscible with H2O | 103.3 | Tissue Extraction ([6]; drug extracted from tissue with methanol after the experiment): 0.15 (±0.05) mg; Acceptor's Mass ([6]; ex vivo, end of experiment): 0 mg; Final Mass Donor ([6]; ex vivo, end of experiment, mean ± SD (n = 3)): 1.85 (±0.2) mg
6 | O=[N+]([O-])OCC(CO[N+](=O)[O-])O[N+](=O)[O-] [nitroglycerin] | – | – | – | – | – | – | – | – | – | – | – | – | – | – | – | – | – | – | – | log P [9]: 1.6
